Drawing on BindingDB's records for doi:10.7270/Q2D798VP (Broad Institute, 2009), this text covers EC50 for one compound.

This assay concerns the target T1, Zinc finger protein mex-5 (Caenorhabditis elegans, UniProt Q9XUB2).
T1 sequence (Q9XUB2 whole entry): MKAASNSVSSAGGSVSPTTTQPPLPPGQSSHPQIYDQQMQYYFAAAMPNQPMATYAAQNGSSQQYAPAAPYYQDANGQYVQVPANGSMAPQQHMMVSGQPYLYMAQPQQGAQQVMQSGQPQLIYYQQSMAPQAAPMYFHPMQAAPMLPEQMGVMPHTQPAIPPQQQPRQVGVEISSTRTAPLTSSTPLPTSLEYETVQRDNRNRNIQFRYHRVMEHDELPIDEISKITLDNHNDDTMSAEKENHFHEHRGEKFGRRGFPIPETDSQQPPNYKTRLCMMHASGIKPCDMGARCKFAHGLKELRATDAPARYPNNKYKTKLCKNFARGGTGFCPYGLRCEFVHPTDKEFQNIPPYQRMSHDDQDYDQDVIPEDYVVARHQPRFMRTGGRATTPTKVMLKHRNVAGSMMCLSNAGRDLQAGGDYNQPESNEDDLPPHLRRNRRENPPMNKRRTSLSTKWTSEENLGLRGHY
The assay can be described thus: MEX-5/TCR-2 RNA interaction inhibitors, dose response, biochemical, C. elegans, fluorescence polarization (AID 1960). (Polarisation of emitted light reports the rotation of a fluorescent probe.)

Usually EC50 stands for the concentration giving half of the maximal effect. Low readings indicate higher potency in that assay, high ones lower potency in that assay. On to `COC(=O)c1[nH]c2cc(OC)c(OC)cc2c1CN=Nc1ccccc1` [methyl (3Z)-5,6-dimethoxy-3-[(2-phenylhydrazinyl)methylidene]indole-2-carboxylate], for which the midpoint of the response, the EC50, lay at 20.3 µM.
